# Tests used:
# [1] = test system: Euschistus heros (Neotropical Brown Stink Bug); experiment: Example B8: Activity against Euschistus heros, sprayed soybean leaves; type: in vivo; settings: 120 h, application rate 200 ppm, N2 nymphs, 5 days after infestation, read-out: effect in at least one of the two categories (mortality or growth inhibition)
# Description: Example B8: Activity Against Euschistus heros (Neotropical Brown Stink Bug)
# Soybean leaves on agar in 24-well microtiter plates were sprayed with aqueous test solutions prepared from 10′000 ppm DMSO stock solutions. After drying the leaves were infested with N2 nymphs. The samples were assessed for mortality and growth inhibition in comparison to untreated samples 5 days after infestation.
# [2] = test system: Diabrotica Balteata (Corn Root Worm); experiment: Example B4: Activity against Diabrotica balteata, sprayed maize sprouts; type: in vivo; settings: 96 h, application rate 200 ppm, L2 larvae, 4 days after infestation, read-out: effect in at least one of the two categories (mortality or growth inhibition)
# Description: Example B4: Activity Against Diabrotica Balteata (Corn Root Worm)
# Maize sprouts, placed onto an agar layer in 24-well microtiter plates were treated with aqueous test solutions prepared from 10′000 ppm DMSO stock solutions by spraying. After drying, the plates were infested with L2 larvae (6 to 10 per well). The samples were assessed for mortality and growth inhibition in comparison to untreated samples 4 days after infestation.
# [3] = test system: Spodoptera littoralis (Egyptian cotton leaf worm); experiment: Example B1: Activity against Spodoptera littoralis, sprayed cotton leaf discs; type: in vivo; settings: foliar, 72 h, application rate 200 ppm, L1 larvae, 3 days after infestation
# Description: Example B1: Activity against Spodoptera littoralis (Egyptian cotton leaf worm) Cotton leaf discs were placed onto agar in 24-well microtiter plates and sprayed with aqueous test solutions prepared from 10′000 ppm DMSO stock solutions. After drying the leaf discs were infested with five L1 larvae. The samples were assessed for mortality, anti-feeding effect, and growth inhibition in comparison to untreated samples 3 days after infestation. Control of Spodoptera littoralis by a test sample is given when at least one of the categories mortality, anti-feedant effect, and growth inhibition is higher than the untreated sample.
# [4] = test system: Myzus persicae (Green Peach Aphid); experiment: Example B5: Activity against Myzus persicae, sprayed sunflower leaf discs; type: in vivo; settings: foliar, 144 h, application rate 200 ppm, mixed-age aphids, 6 days after infestation
# Description: Example B5: Activity Against Myzus persicae (Green Peach Aphid)
# Sunflower leaf discs were placed onto agar in a 24-well microtiter plate and sprayed with aqueous test solutions prepared from 10′000 ppm DMSO stock solutions. After drying, the leaf discs were infested with an aphid population of mixed ages. The samples were assessed for mortality 6 days after infestation.
# [5] = test system: Plutella xylostella (Diamond Back Moth); experiment: Example B3: Activity against Plutella xylostella, artificial diet; type: in vivo; settings: 120 h, application rate 200 ppm, L2 larvae, 5 days after infestation, read-out: effect in at least one of the two categories (mortality or growth inhibition)
# Description: Example B3: Activity Against Plutella xylostella (Diamond Back Moth)
# 24-well microtiter plates with artificial diet were treated with aqueous test solutions prepared from 10′000 ppm DMSO stock solutions by pipetting. After drying, the plates were infested with L2 larvae (10 to 15 per well). The samples were assessed for mortality and growth inhibition in comparison to untreated samples 5 days after infestation.
# [6] = test system: Spodoptera littoralis (Egyptian cotton leaf worm); experiment: Example B2: Activity against Spodoptera littoralis, systemic via lettuce roots in agar; type: in vivo; settings: 144 h, test rate 12.5 ppm, uptake by lettuce roots from agar, 6 days after infestation, read-out: effect in at least one of the three categories (mortality, anti-feeding, or growth inhibition)
# From the text: Example B2: Activity against Spodoptera littoralis (Egyptian cotton leaf worm) Test compounds were applied by pipette from 10′000 ppm DMSO stock solutions into 24-well plates and mixed with agar. Lettuce seeds were placed onto the agar and the multi well plate was closed by another plate which contained also agar. After 7 days the compound was absorbed by the roots and the lettuce grew into the lid plate. The lettuce leaves were then cut off into the lid plate. Spodoptera eggs were pipetted through a plastic stencil onto a humid gel blotting paper and the lid plate was closed with it. The samples were assessed for mortality, anti-feedant effect and growth inhibition in comparison to untreated samples 6 days after infestation.
compound,measurement,setting,value
"CCS(=O)(=O)c1ccc(-c2cc(F)cc(F)c2)nc1-n1cc2cnc(C(F)(F)F)cc2n1 [Compound P1, 2-[6-(3,5-difluorophenyl)-3-ethylsulfonyl-2-pyridyl]-6-(trifluoromethyl)pyrazolo[4,3-c]pyridine]",melting point,,207 to 209 °C
"CCS(=O)(=O)c1ccc(-n2cncn2)nc1-n1nc2cc(C(F)(F)F)ncc2c1Cl [Compound P2, 3-chloro-2-[3-ethylsulfonyl-6-(1,2,4-triazol-1-yl)-2-pyridyl]-6-(trifluoromethyl)pyrazolo[4,3-c]pyridine]",percent effect (mortality or growth inhibition) at 200 ppm,[1],≥ 80%
same,percent effect (mortality or growth inhibition) at 200 ppm,[2],≥ 80%
same,"percent control (mortality, anti-feedant effect or growth inhibition) at 200 ppm",[3],≥ 80%
"CCS(=O)(=O)c1ccc(-n2cncn2)nc1-n1cc2cnc(C(F)(F)F)cc2n1 [Compound P3, 2-[3-ethylsulfonyl-6-(1,2,4-triazol-1-yl)-2-pyridyl]-6-(trifluoromethyl)pyrazolo[4,3-c]pyridine]",mortality at 200 ppm,[4],≥ 80%
same,percent effect (mortality or growth inhibition) at 200 ppm,[1],≥ 80%
same,percent effect (mortality or growth inhibition) at 200 ppm,[5],≥ 80%
same,percent effect (mortality or growth inhibition) at 200 ppm,[2],≥ 80%
same,"percent control (mortality, anti-feedant effect or growth inhibition) at 200 ppm",[3],≥ 80%
same,"percent effect (mortality, anti-feeding or growth inhibition) at 12.5 ppm",[6],≥ 80%
CCS(=O)(=O)c1ccc(-n2cnc(Cl)n2)nc1-n1nc2cc(C(F)(F)F)ncc2c1Cl [Compound P4],"percent control (mortality, anti-feedant effect or growth inhibition) at 200 ppm",[3],≥ 80%
CCS(=O)(=O)c1ccc(-n2cc(C#N)cn2)nc1-n1cc2cnc(C(F)(F)F)cc2n1 [Compound P5],percent effect (mortality or growth inhibition) at 200 ppm,[1],≥ 80%
same,percent effect (mortality or growth inhibition) at 200 ppm,[5],≥ 80%
same,percent effect (mortality or growth inhibition) at 200 ppm,[2],≥ 80%
same,"percent control (mortality, anti-feedant effect or growth inhibition) at 200 ppm",[3],≥ 80%
CCS(=O)(=O)c1ccc(-c2cccc(F)c2)nc1-n1nc2cc(C(F)(F)F)ncc2c1Cl [Compound P6],percent effect (mortality or growth inhibition) at 200 ppm,[5],≥ 80%
same,"percent control (mortality, anti-feedant effect or growth inhibition) at 200 ppm",[3],≥ 80%
CCS(=O)(=O)c1ccc(-c2cccc(F)c2)nc1-n1cc2cnc(C(F)(F)F)cc2n1 [Compound P7],"percent control (mortality, anti-feedant effect or growth inhibition) at 200 ppm",[3],≥ 80%
CCS(=O)(=O)c1ccc(-n2cccn2)nc1-n1cc2cnc(C(F)(F)F)cc2n1 [Compound P8],mortality at 200 ppm,[4],≥ 80%
same,percent effect (mortality or growth inhibition) at 200 ppm,[5],≥ 80%
same,percent effect (mortality or growth inhibition) at 200 ppm,[2],≥ 80%
same,"percent control (mortality, anti-feedant effect or growth inhibition) at 200 ppm",[3],≥ 80%
CCS(=O)(=O)c1ccc(-c2cncnc2)nc1-n1cc2cnc(C(F)(F)F)cc2n1 [Compound P9],mortality at 200 ppm,[4],≥ 80%
same,percent effect (mortality or growth inhibition) at 200 ppm,[1],≥ 80%
same,percent effect (mortality or growth inhibition) at 200 ppm,[5],≥ 80%
same,percent effect (mortality or growth inhibition) at 200 ppm,[2],≥ 80%
same,"percent control (mortality, anti-feedant effect or growth inhibition) at 200 ppm",[3],≥ 80%
"CCS(=O)(=O)c1ccc(-n2cc(C#N)cn2)nc1-n1nc2cc(C(F)(F)F)ncc2c1Cl [Compound P10, 1-[6-[3-chloro-6-(trifluoromethyl)pyrazolo[4,3-c]pyridin-2-yl]-5-ethylsulfonyl-2-pyridyl]pyrazole-4-carbonitrile]",percent effect (mortality or growth inhibition) at 200 ppm,[5],≥ 80%
same,"percent control (mortality, anti-feedant effect or growth inhibition) at 200 ppm",[3],≥ 80%
"CCS(=O)(=O)c1ccc(-c2cccnc2)nc1-n1cc2cnc(C(F)(F)F)cc2n1 [Compound P12, 2-[3-ethylsulfonyl-6-(3-pyridyl)-2-pyridyl]-6-(trifluoromethyl)pyrazolo[4,3-c]pyridine]",percent effect (mortality or growth inhibition) at 200 ppm,[5],≥ 80%
same,percent effect (mortality or growth inhibition) at 200 ppm,[2],≥ 80%
same,"percent control (mortality, anti-feedant effect or growth inhibition) at 200 ppm",[3],≥ 80%
CCS(=O)(=O)c1ccc(NC)nc1-n1nc2cc(C(F)(F)F)ncc2c1Cl [Compound P13],melting point,,257 to 259 °C
"CCS(=O)(=O)c1ccc(N)nc1-n1nc2cc(C(F)(F)F)ncc2c1Cl [Compound P14, 6-[3-chloro-6-(trifluoromethyl)pyrazolo[4,3-c]pyridin-2-yl]-5-ethylsulfonyl-pyridin-2-amine]",mortality at 200 ppm,[4],≥ 80%
CCS(=O)(=O)c1ccc(NC)nc1-n1cc2cnc(C(F)(F)F)cc2n1 [Compound P15],mortality at 200 ppm,[4],≥ 80%
same,percent effect (mortality or growth inhibition) at 200 ppm,[1],≥ 80%
same,percent effect (mortality or growth inhibition) at 200 ppm,[5],≥ 80%
same,percent effect (mortality or growth inhibition) at 200 ppm,[2],≥ 80%
same,"percent control (mortality, anti-feedant effect or growth inhibition) at 200 ppm",[3],≥ 80%
same,"percent effect (mortality, anti-feeding or growth inhibition) at 12.5 ppm",[6],≥ 80%
"CCS(=O)(=O)c1ccc(-c2cccnc2)nc1-n1nc2cc(C(F)(F)F)ncc2c1Cl [Compound P17, 3-chloro-2-[3-ethylsulfonyl-6-(3-pyridyl)-2-pyridyl]-6-(trifluoromethyl)pyrazolo[4,3-c]pyridine]",melting point,,194 to 196 °C
CCS(=O)(=O)c1cc(Cl)c(NC)nc1-n1cc2cnc(C(F)(F)F)cc2n1 [Compound P18],mortality at 200 ppm,[4],≥ 80%
same,percent effect (mortality or growth inhibition) at 200 ppm,[1],≥ 80%
same,percent effect (mortality or growth inhibition) at 200 ppm,[5],≥ 80%
same,percent effect (mortality or growth inhibition) at 200 ppm,[2],≥ 80%
same,"percent control (mortality, anti-feedant effect or growth inhibition) at 200 ppm",[3],≥ 80%
CCS(=O)(=O)c1ccc(-n2ccc(C#N)n2)nc1-n1cc2cnc(C(F)(F)F)cc2n1 [Compound P20],percent effect (mortality or growth inhibition) at 200 ppm,[1],≥ 80%
same,percent effect (mortality or growth inhibition) at 200 ppm,[5],≥ 80%
same,percent effect (mortality or growth inhibition) at 200 ppm,[2],≥ 80%
same,"percent control (mortality, anti-feedant effect or growth inhibition) at 200 ppm",[3],≥ 80%
CCS(=O)(=O)c1ccc(-n2ccc(C#N)n2)nc1-n1nc2cc(C(F)(F)F)ncc2c1Cl [Compound P21],melting point,,264 to 266 °C
"CCS(=O)(=O)c1ccc(-n2cncn2)nc1-n1nc2cc(C(F)(F)F)ncc2c1C [Compound P22, 2-[3-ethylsulfonyl-6-(1,2,4-triazol-1-yl)-2-pyridyl]-3-methyl-6-(trifluoromethyl)pyrazolo[4,3-c]pyridine]",mortality at 200 ppm,[4],≥ 80%
same,percent effect (mortality or growth inhibition) at 200 ppm,[5],≥ 80%
same,percent effect (mortality or growth inhibition) at 200 ppm,[2],≥ 80%
same,"percent control (mortality, anti-feedant effect or growth inhibition) at 200 ppm",[3],≥ 80%
same,"percent effect (mortality, anti-feeding or growth inhibition) at 12.5 ppm",[6],≥ 80%
CCOc1nc(-n2cc3cnc(C(F)(F)F)cc3n2)c(S(=O)(=O)CC)cc1Cl [Compound P23],mortality at 200 ppm,[4],≥ 80%
same,percent effect (mortality or growth inhibition) at 200 ppm,[1],≥ 80%
same,percent effect (mortality or growth inhibition) at 200 ppm,[5],≥ 80%
same,percent effect (mortality or growth inhibition) at 200 ppm,[2],≥ 80%
same,"percent control (mortality, anti-feedant effect or growth inhibition) at 200 ppm",[3],≥ 80%
"CCS(=O)(=O)c1cc(Cl)c(OC)nc1-n1cc2cnc(C(F)(F)F)cc2n1 [Compound P24, 2-(5-chloro-3-ethylsulfonyl-6-methoxy-2-pyridyl)-6-(trifluoromethyl)pyrazolo[4,3-c]pyridine]",mortality at 200 ppm,[4],≥ 80%
same,percent effect (mortality or growth inhibition) at 200 ppm,[1],≥ 80%
same,percent effect (mortality or growth inhibition) at 200 ppm,[5],≥ 80%
same,percent effect (mortality or growth inhibition) at 200 ppm,[2],≥ 80%
same,"percent control (mortality, anti-feedant effect or growth inhibition) at 200 ppm",[3],≥ 80%
CCS(=O)(=O)c1ccc(-n2cnc(SC)n2)nc1-n1nc2cc(C(F)(F)F)ncc2c1Cl [Compound P26],melting point,,118 to 120 °C
CCS(=O)(=O)c1ccc(-n2cnc(SC)n2)nc1-n1cc2cnc(C(F)(F)F)cc2n1 [Compound P27],melting point,,172 to 174 °C
CCS(=O)(=O)c1ccc(-n2cnc(S(C)(=O)=O)n2)nc1-n1cc2cnc(C(F)(F)F)cc2n1 [Compound P28],melting point,,247 to 249 °C
CCS(=O)(=O)c1ccc(N(C)C)nc1-n1nc2cc(C(F)(F)F)ncc2c1Cl [Compound P29],melting point,,166 to 168 °C
CCS(=O)(=O)c1ccc(N(C)C)nc1-n1cc2cnc(C(F)(F)F)cc2n1 [Compound P30],melting point,,256 to 258 °C
CCS(=O)(=O)c1ccc(NO)nc1-n1nc2cc(C(F)(F)F)ncc2c1Cl [Compound P32],melting point,,246 to 248 °C
